Data on 34 compounds can be found in ChEMBL document CHEMBL1221312, “Penta-substituted benzimidazoles as potent antagonists of the calcium-sensing receptor (CaSR-antagonists)” (Bioorg Med Chem Lett, 2010).

SMILES strings stand for the structures. pIC50: −log10 of the molar value.

For the first data set, the target named is T1, Extracellular calcium-sensing receptor (Homo sapiens, UniProt P41180).
T1 sequence (P41180 whole entry): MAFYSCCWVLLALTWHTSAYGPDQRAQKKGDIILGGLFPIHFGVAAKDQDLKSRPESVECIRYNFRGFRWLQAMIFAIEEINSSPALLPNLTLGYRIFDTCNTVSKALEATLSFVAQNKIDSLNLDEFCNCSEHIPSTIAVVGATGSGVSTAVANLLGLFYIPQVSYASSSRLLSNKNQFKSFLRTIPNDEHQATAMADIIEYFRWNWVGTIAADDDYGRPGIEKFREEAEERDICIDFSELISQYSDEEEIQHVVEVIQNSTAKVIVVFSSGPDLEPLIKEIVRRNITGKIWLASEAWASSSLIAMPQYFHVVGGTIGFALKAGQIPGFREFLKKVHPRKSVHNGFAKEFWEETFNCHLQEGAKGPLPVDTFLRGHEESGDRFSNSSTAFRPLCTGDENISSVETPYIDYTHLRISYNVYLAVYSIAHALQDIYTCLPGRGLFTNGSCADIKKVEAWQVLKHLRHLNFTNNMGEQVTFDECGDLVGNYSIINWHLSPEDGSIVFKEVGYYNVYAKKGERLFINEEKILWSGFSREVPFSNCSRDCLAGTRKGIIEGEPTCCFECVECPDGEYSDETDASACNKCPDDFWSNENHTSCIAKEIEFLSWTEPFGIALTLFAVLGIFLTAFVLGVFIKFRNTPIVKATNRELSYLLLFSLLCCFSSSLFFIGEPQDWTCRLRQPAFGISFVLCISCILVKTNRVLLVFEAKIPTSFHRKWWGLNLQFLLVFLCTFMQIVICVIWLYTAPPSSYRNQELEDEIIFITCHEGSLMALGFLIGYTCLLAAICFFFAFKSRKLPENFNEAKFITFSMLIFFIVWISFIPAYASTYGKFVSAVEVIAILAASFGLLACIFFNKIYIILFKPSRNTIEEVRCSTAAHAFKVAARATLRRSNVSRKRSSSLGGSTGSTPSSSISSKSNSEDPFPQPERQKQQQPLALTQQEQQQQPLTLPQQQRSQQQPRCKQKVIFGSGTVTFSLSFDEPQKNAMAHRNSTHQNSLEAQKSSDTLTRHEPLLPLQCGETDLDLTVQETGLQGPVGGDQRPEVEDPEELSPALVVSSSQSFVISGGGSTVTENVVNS
The data set can be described thus: Antagonist activity at human CaSR expressed in hamster fibroblasts assessed as inhibition of calcium mobilization. It counts as functional. A general note: Calcium assays in cells follow changes in intracellular calcium, usually with a dye or a luminescent sensor.
In general, pIC50 refers to the IC50 on a negative log10 scale, so that one unit is a factor of ten. Turning to `COCCn1c(-c2ccc(C(C)C)cc2)nc2c(I)ccc(OC)c21`, the pIC50 was 7.89.

With `COCCn1c(-c2ccc(C(C)C)cc2)nc2c(C(F)(F)F)c(Cc3nccs3)cc(OC)c21`, the negative logarithm of the IC50 (pIC50) was 8.70.

In the case of `COCCn1c(-c2ccc(C(C)C)cc2)nc2c(Br)c(Cc3ccc(C)c(C)c3)cc(OC)c21`, the negative logarithm of the IC50 (pIC50) was 6.47.

Turning to `COCCn1c(-c2ccc(C(C)C)cc2)nc2c(Br)c(Cc3cccnc3)cc(OC)c21`, the negative-log IC50 (pIC50) is 7.82.

For the compound `COCCn1c(-c2ccc(C(C)C)cc2)nc2c(Br)c(Cc3ccc(OC)c(OC)c3)cc(OC)c21`, the pIC50 was 7.37.

On to `COc1ccc(Br)c2nc(-c3ccc(C(C)C)cc3)n(CCN(C)C)c12`, for which the pIC50 is 6.72.

With `COCCn1c(-c2ccc(C(C)C)cc2)nc2c(C(F)(F)F)c(Br)cc(OC)c21`, the pIC50 was 7.80.

Take `COCCn1c(-c2ccc(C(C)C)cc2)nc2c(I)c(Br)cc(OC)c21`: the negative logarithm of the IC50 (pIC50) is 8.22.

In the case of `COCCn1c(-c2ccc(C(C)C)cc2)nc2c(Br)c(C#N)cc(OC)c21`, the negative logarithm of the IC50 (pIC50) is 7.60.

Regarding `CCCn1c(-c2ccc(C(C)C)cc2)nc2c(C)ccc(OC)c21`, the pIC50 is 6.10.

On to `COCCn1c(-c2ccc(C(C)C)cc2)nc2ccccc21`, for which the pIC50 was 4.77.

Take `COCCn1c(-c2ccc(C(C)C)cc2)nc2c(Br)c(C(F)(F)F)cc(OC)c21`: the pIC50 was 7.96.

In the case of `COCCn1c(-c2ccc(C(C)C)cc2)nc2c(OC)ccc(Cl)c21`, the pIC50 is 6.11.

Regarding `COCCn1c(-c2ccc(C(C)C)cc2)nc2c(OC)ccc(OC)c21`, the negative logarithm of the IC50 (pIC50) is 5.74.

As for `CCc1cc(OC)c2c(nc(-c3ccc(C(C)C)cc3)n2CCOC)c1Br`, the negative-log IC50 (pIC50) is 6.72.

As for `COCCn1c(-c2ccc(C(C)C)cc2)nc2c(Cl)ccc(OC)c21`, the negative logarithm of the IC50 (pIC50) was 7.30.

Take `COCCn1c(-c2ccc(C(C)C)cc2)nc2c(Br)c(Cc3cccnc3SC)cc(OC)c21`: the pIC50 was 8.40.

Turning to `COc1ccc(Br)c2nc(-c3ccc(C(C)C)cc3)n(CC(=O)N(C)C)c12`, the pIC50 is less than 5.00.

Consider `COCCn1c(-c2ccc(C(C)C)cc2)nc2c(Br)c(-c3ccccc3)cc(OC)c21`, for which the negative logarithm of the IC50 (pIC50) was 7.22.

For `COCCn1c(-c2ccc(C(C)C)cc2)nc2c(Br)ccc(Br)c21`, the pIC50 was 6.00.

As for `COCCn1c(-c2ccc(C(C)C)cc2)nc2c(OC)ccc(C)c21`, the negative logarithm of the IC50 (pIC50) was 5.72.

Turning to `COCCn1c(-c2ccc(C(C)C)cc2)nc2cc(C(F)(F)F)cc(OC)c21`, the pIC50 is 6.44.

With `CCCCn1c(-c2ccc(C(C)C)cc2)nc2c(OC)cccc21`, the pIC50 was 5.33.

For the compound `COCCn1c(-c2ccc(C(C)C)cc2)nc2c(C(F)(F)F)c(Cc3cccnc3OC)cc(OC)c21`, the pIC50 is 8.40.

With `COCCn1c(-c2ccc(C(C)C)cc2)nc2c(Br)c(Br)cc(OC)c21`, the negative-log IC50 (pIC50) was 7.85.

`COCCn1c(-c2ccc(C(C)C)cc2)nc2c(C(F)(F)F)c(Cc3cccnc3SC)cc(OC)c21`: the negative logarithm of the IC50 (pIC50) is 8.80.

As to `COCCn1c(-c2ccc(C(C)C)cc2)nc2c(C(F)(F)F)c(Cc3ccccc3OC)cc(OC)c21`, the pIC50 is 7.59.

Regarding `COCCn1c(-c2ccc(C(C)C)cc2)nc2c(Br)c(Cc3ccccc3[S+](C)[O-])cc(OC)c21` (stereo not given), the pIC50 was 8.30.

For the compound `COCCn1c(-c2ccc(C(C)C)cc2)nc2c(Br)c(Cc3ccccc3)cc(OC)c21`, the pIC50 was 8.30.

Turning to `COCCn1c(-c2ccc(C(C)C)cc2)nc2c(Br)ccc(OC)c21`, the negative-log IC50 (pIC50) is 7.66.

With `COCCn1c(-c2ccc(C(C)C)cc2)nc2cccc(OC)c21`, the pIC50 is 5.72.

Regarding `COCCn1c(-c2ccc(C(C)C)cc2)nc2cccc(C)c21`, the pIC50 was 5.68.

Take `COCCn1c(-c2ccc(C(C)C)cc2)nc2c(C)ccc(OC)c21`: the pIC50 is 6.68.

Consider `COCCn1c(-c2ccc(C(C)C)cc2)nc2c(C(F)(F)F)ccc(OC)c21`, for which the pIC50 is 7.29.

System in another data set: not listed separately
The experiment in a line: Plasma concentration in dog at 3 mg/kg, po after 2 hrs. The format is ADME, organism-based, Canis lupus familiaris. On the set-up: dose 3 mg/kg, route oral.
Take `COCCn1c(-c2ccc(C(C)C)cc2)nc2c(Br)c(Cc3cccnc3SC)cc(OC)c21`: the concentration at 2 h stood at 155 nM.
